*1 amine or outer side, *2 acyl side, *3 side chain or, on linkers, in order; H or OH if unused. Where a SMILES comes first, the peptide text is derived from it. Side-chain parts run from the residue outwards. [ ]: non-standard residue; d: D form. The star is where a group is joined. γGlu = O=C(O)[C@H](CCC(=O)[*:2])N[*:1]; Desaminohistidyl = O=C(CCc1c[nH]cn1)*; Aib = CC(C)(N)C(=O)O

This data set is described as follows: physchem. Format: physicochemical. The note with it: pH 7.5. From the text: Assay (III): ThT Fibrillation Assay for the Assessment of Physical Stability of Peptide Compositions The purpose of this assay is to assess the physical stability of the glucagon derivatives of the invention in aqueous solutions. Low physical stability of a peptide may lead to amyloid fibril formation, which is observed as well-ordered, thread-like macromolecular structures in the sample, which eventually may lead to gel formation. This has traditionally been measured by visual inspection of the sample. However, that kind of measurement is very cumbersome and depending on the observer. Therefore, the application of a small molecule indicator probe is much more advantageous. Thioflavin T (ThT) is such a probe and has a distinct fluorescence signature when binding to fibrils [Naiki et al. (1989) Anal. Biochem. 177, 244-249; LeVine (1999) Methods. Enzymol. 309, 274-284]. Here, as depicted in FIG. 1, F is the ThT fluorescence at the time t. The constant t0 is the time needed to reach 50% of maximum fluorescence. The two important parameters describing fibril formation are the lag-time calculated by t0−2τ and the apparent rate constant kapp 1/τ. Samples were prepared freshly before each assay. Each sample composition is described in the legends. The pH of the sample was adjusted to the desired value using appropriate amounts of concentrated NaOH and HCl. Thioflavin T was added to the samples from a stock solution in H2O to a final concentration of 1 μM. Sample aliquots of 200 μl (250 μM of the glucagon derivative/analogue in 10 mM HEPES buffer, pH 7.5) were placed in a 96 well microtiter plate (Packard OptiPlate™-96, white polystyrene). Usually, four or eight replica of each sample (corresponding to one test condition) was placed in one column of wells. The plate was sealed with Scotch Pad (Qiagen). Incubation at given temperature, shaking and measurement of the ThT fluorescence emission were done in a Fluoroskan Ascent FL fluorescence platereader (Thermo Labsystems). The plate was incubated 37° C. with orbital shaking adjusted to 960 rpm with an amplitude of 1 mm. Fluorescence measurement was done using excitation through a 444 nm filter and measurement of emission through a 485 nm filter. Each run was initiated by incubating the plate at the assay temperature for 10 min. The plate was measured every 20 minutes for a desired period of time. Between each measurement, the plate was shaken and heated as described. After completion of the ThT assay the four or eight replica of each sample was pooled and centrifuged at 20000 rpm for 30 minutes at 18° C. The supernatant was filtered through a 0.22 μm filter and an aliquot was transferred to a HPLC vial. The concentration of peptide in the initial sample and in the filtered supernatant was determined by reverse phase HPLC using an appropriate standard as reference. The percentage fraction the concentration of the filtered sample constituted of the initial sample concentration was reported as the recovery. The measurement points were saved in Microsoft Excel format for further processing and curve drawing and fitting was performed using GraphPad Prism. The background emission from ThT in the absence of fibrils was negligible. The data points were typically a mean of four or eight samples and shown with standard deviation error bars. Only data obtained in the same experiment (i.e. samples on the same plate) were presented in the same graph ensuring a relative measure of fibrillation between experiments. The data set may be fitted to Eq. (1).

`CC(=O)N[C@@H](CCC(=O)N[C@@H](CCC(=O)N[C@@H](CCC(=O)N[C@@H](CCC(=O)NCC(=O)NCCCC[C@H](NC(=O)[C@@H](NC(=O)[C@H](Cc1ccccc1)NC(=O)[C@H](CCC(=O)O)NC(=O)[C@H](CCC(N)=O)NC(=O)[C@H](C)NC(=O)[C@H](CCCNC(=N)N)NC(=O)[C@H](CCCNC(=N)N)NC(=O)[C@H](CO)NC(=O)[C@H](CCC(=O)O)NC(=O)[C@H](CC(C)C)NC(=O)[C@H](Cc1ccc(O)cc1)NC(=O)[C@H](CCCCN)NC(=O)[C@H](CO)NC(=O)[C@H](Cc1ccc(O)cc1)NC(=O)[C@H](CC(=O)O)NC(=O)[C@H](CO)NC(=O)[C@@H](NC(=O)[C@H](Cc1ccccc1)NC(=O)[C@@H](NC(=O)CNC(=O)[C@H](Cc1c[nH]cn1)NC(=O)[C@H](CO)NC(=O)CCc1c[nH]cn1)[C@@H](C)O)[C@@H](C)O)C(C)C)C(=O)N[C@@H](Cc1c[nH]c2ccccc12)C(=O)N[C@@H](CC(C)C)C(=O)N[C@@H](CC(C)C)C(=O)N[C@@H](CO)C(=O)N[C@H](C(=O)O)[C@@H](C)O)C(=O)O)C(=O)O)C(=O)O)C(=O)O` [Example 17, N^ϵ24-[2-[[(4S)-4-[[(4S)-4-[[(4S)-4-[[(4S)-4-acetamido-4-carboxybutanoyl]amino]-4-carboxybutanoyl]amino]-4-carboxybutanoyl]amino]-4-carboxybutanoyl]amino]acetyl]-[Imp1, His3, Glu15, Glu21, Lys24, Leu27, Ser28]-Glucagon] (Desaminohistidyl-SHGTFTSDYSKYLESRRAQEFVK([Gly-γGlu-γGlu-γGlu-γGlu-Ac])WLLST-OH) displayed a recovery at 250 μM of 100%.

`CC(=O)N[C@@H](CCC(=O)N[C@@H](CCC(=O)N[C@@H](CCC(=O)N[C@@H](CCC(=O)NCCCC[C@H](NC(=O)[C@H](CCC(=O)O)NC(=O)[C@H](CC(C)C)NC(=O)[C@H](Cc1ccc(O)cc1)NC(=O)[C@H](CCCCN)NC(=O)[C@H](CO)NC(=O)[C@H](Cc1ccc(O)cc1)NC(=O)[C@H](CC(=O)O)NC(=O)[C@H](CO)NC(=O)[C@@H](NC(=O)[C@H](Cc1ccccc1)NC(=O)[C@@H](NC(=O)CNC(=O)[C@H](Cc1c[nH]cn1)NC(=O)[C@H](CO)NC(=O)CCc1c[nH]cn1)[C@@H](C)O)[C@@H](C)O)C(=O)N[C@@H](CCCNC(=N)N)C(=O)N[C@@H](CCCNC(=N)N)C(=O)N[C@@H](C)C(=O)N[C@@H](CCC(N)=O)C(=O)N[C@@H](CCC(=O)O)C(=O)N[C@@H](Cc1ccccc1)C(=O)N[C@H](C(=O)N[C@@H](CCC(N)=O)C(=O)N[C@@H](Cc1c[nH]c2ccccc12)C(=O)N[C@@H](CC(C)C)C(=O)N[C@@H](CC(C)C)C(=O)N[C@@H](CO)C(=O)N[C@H](C(=O)O)[C@@H](C)O)C(C)C)C(=O)O)C(=O)O)C(=O)O)C(=O)O` [Example 11, N^ϵ16-[(4S)-4-[[(4S)-4-[[(4S)-4-[[(4S)-4-acetamido-4-carboxybutanoyl]amino]-4-carboxybutanoyl]amino]-4-carboxybutanoyl]amino]-4-carboxybutanoyl]-[Imp1, His3, Glu15, Lys16, Glu21, Leu27, Ser28]-Glucagon] (Desaminohistidyl-SHGTFTSDYSKYLEK([γGlu-γGlu-γGlu-γGlu-Ac])RRAQEFVQWLLST-OH) displayed a recovery at 250 μM of 98%.

In the case of `CC(=O)N[C@@H](CCC(=O)N[C@@H](CCC(=O)N[C@@H](CCC(=O)N[C@@H](CCC(=O)NCCCC[C@H](NC(=O)[C@@H](NC(=O)[C@H](Cc1ccccc1)NC(=O)[C@H](CC(=O)O)NC(=O)[C@H](CCC(N)=O)NC(=O)[C@H](C)NC(=O)[C@H](CCCNC(=N)N)NC(=O)[C@H](CCCNC(=N)N)NC(=O)[C@H](CO)NC(=O)[C@H](CCC(=O)O)NC(=O)[C@H](CC(C)C)NC(=O)[C@H](Cc1ccc(O)cc1)NC(=O)[C@H](CCCCN)NC(=O)[C@H](CO)NC(=O)[C@H](CC(C)C)NC(=O)[C@H](CC(=O)O)NC(=O)[C@H](CO)NC(=O)[C@@H](NC(=O)[C@H](Cc1ccccc1)NC(=O)[C@@H](NC(=O)CNC(=O)[C@H](Cc1c[nH]cn1)NC(=O)C(C)(C)NC(=O)CCc1c[nH]cn1)[C@@H](C)O)[C@@H](C)O)C(C)C)C(=O)N[C@@H](Cc1c[nH]c2ccccc12)C(=O)N[C@@H](CC(C)C)C(=O)N[C@@H](CC(C)C)C(=O)N[C@@H](CO)C(=O)N[C@H](C(=O)O)[C@@H](C)O)C(=O)O)C(=O)O)C(=O)O)C(=O)O` [Example 3, N^ϵ24-[(4S)-4-[[(4S)-4-[[(4S)-4-[[(4S)-4-acetamido-4-carboxybutanoyl]amino]-4-carboxybutanoyl]amino]-4-carboxybutanoyl]amino]-4-carboxybutanoyl]-[Imp1, Aib2, His3, Leu10, Glu15, Lys24, Leu27, Ser28]-Glucagon] (Desaminohistidyl-[Aib]HGTFTSDLSKYLESRRAQDFVK([γGlu-γGlu-γGlu-γGlu-Ac])WLLST-OH), the recovery at 250 μM came out at 100%.

Regarding `CC(=O)N[C@@H](CCC(=O)N[C@@H](CCC(=O)N[C@@H](CCC(=O)N[C@@H](CCC(=O)NCCCC[C@H](NC(=O)[C@H](C)NC(=O)[C@H](CCCNC(=N)N)NC(=O)[C@H](CCCNC(=N)N)NC(=O)[C@H](CO)NC(=O)[C@H](CCC(=O)O)NC(=O)[C@H](CC(C)C)NC(=O)[C@H](Cc1ccc(O)cc1)NC(=O)[C@H](CCCCN)NC(=O)[C@H](CO)NC(=O)[C@H](Cc1ccc(O)cc1)NC(=O)[C@H](CC(=O)O)NC(=O)[C@H](CO)NC(=O)[C@@H](NC(=O)[C@H](Cc1ccccc1)NC(=O)[C@@H](NC(=O)CNC(=O)[C@H](Cc1c[nH]cn1)NC(=O)[C@H](CO)NC(=O)CCc1c[nH]cn1)[C@@H](C)O)[C@@H](C)O)C(=O)N[C@@H](CCC(=O)O)C(=O)N[C@@H](Cc1ccccc1)C(=O)N[C@H](C(=O)N[C@@H](CCC(N)=O)C(=O)N[C@@H](Cc1c[nH]c2ccccc12)C(=O)N[C@@H](CC(C)C)C(=O)N[C@@H](CC(C)C)C(=O)N[C@@H](CO)C(=O)N[C@H](C(=O)O)[C@@H](C)O)C(C)C)C(=O)O)C(=O)O)C(=O)O)C(=O)O` [Example 12, N^ϵ20-[(4S)-4-[[(4S)-4-[[(4S)-4-[[(4S)-4-acetamido-4-carboxybutanoyl]amino]-4-carboxybutanoyl]amino]-4-carboxybutanoyl]amino]-4-carboxybutanoyl]-[Imp1, His3, Glu15, Lys20, Glu21, Leu27, Ser28]-Glucagon] (Desaminohistidyl-SHGTFTSDYSKYLESRRAK([γGlu-γGlu-γGlu-γGlu-Ac])EFVQWLLST-OH), the recovery at 250 μM turned out to be 88%.

`CC(=O)N[C@@H](CCC(=O)N[C@@H](CCC(=O)N[C@@H](CCC(=O)N[C@@H](CCC(=O)NCCCC[C@H](NC(=O)[C@@H](NC(=O)[C@H](Cc1ccccc1)NC(=O)[C@H](CC(=O)O)NC(=O)[C@H](CCC(N)=O)NC(=O)[C@H](C)NC(=O)[C@H](CCCNC(=N)N)NC(=O)[C@H](CCCNC(=N)N)NC(=O)[C@H](CO)NC(=O)[C@H](CCC(=O)O)NC(=O)[C@H](CC(C)C)NC(=O)[C@H](Cc1ccc(O)cc1)NC(=O)[C@H](CCCCN)NC(=O)[C@H](CO)NC(=O)[C@H](Cc1ccc(O)cc1)NC(=O)[C@H](CC(=O)O)NC(=O)[C@H](CO)NC(=O)[C@@H](NC(=O)[C@H](Cc1ccccc1)NC(=O)[C@@H](NC(=O)CNC(=O)[C@H](Cc1c[nH]cn1)NC(=O)[C@H](CO)NC(=O)CCc1c[nH]cn1)[C@@H](C)O)[C@@H](C)O)C(C)C)C(=O)N[C@@H](Cc1c[nH]c2ccccc12)C(=O)N[C@@H](CC(C)C)C(=O)N[C@@H](CC(C)C)C(=O)N[C@@H](CO)C(=O)N[C@H](C(=O)O)[C@@H](C)O)C(=O)O)C(=O)O)C(=O)O)C(=O)O` [Example 5, N^ϵ24-[(4S)-4-[[(4S)-4-[[(4S)-4-[[(4S)-4-acetamido-4-carboxybutanoyl]amino]-4-carboxybutanoyl]amino]-4-carboxybutanoyl]amino]-4-carboxybutanoyl]-[Imp1, His3, Glu15, Lys24, Leu27, Ser28]-Glucagon] (Desaminohistidyl-SHGTFTSDYSKYLESRRAQDFVK([γGlu-γGlu-γGlu-γGlu-Ac])WLLST-OH) came in with a recovery at 250 μM of 100%.

Values taken from US9963496B2, “Stable glucagon analogues and use for treatment of hypoglycaemia” (Novo Nordisk A/S, priority 2014, dated 2018).
